Our source for the EC50 values is patent publication US8822430B2 (Gilead Sciences, Inc., priority 2009, dated 2014).

In this test the test system is HCV 1b RLuc cells (dicistronic genotype 1b Con1 replicon). The test is described as follows: Renilla luciferase (RLuc)-based HCV replicon reporter assay. To be noted: Hepatitis C virus, 72 h, HCV 1b RLuc replicon, 72 hours; read-out: Activity (antiviral potency [EC50]). Type of test: cell-based, HCV genotype 1b. Put shortly: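 EC50 values were calculated by non-linear regression of Renilla luciferase signal from lysed cells after 72 h of compound exposure. Cells harboured a genotype 1b Con1 dicistronic replicon encoding RLuc. Compounds were serially diluted in DMSO from 10 mM stocks into culture media.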
(Replicon systems follow genome replication, usually without infectious particles.)

A value given as a limit tells only on which side of the number the result lay.

Usually EC50 stands for the midpoint of the concentration-response curve. As to `COC(=O)N[C@H](C(=O)N1CCC[C@H]1c1nc2ccc(-c3ccc4cc(-c5ccc6nc([C@@H]7CCCN7C(=O)[C@@H](NC(=O)OC)C(C)C)[nH]c6c5)ccc4c3)cc2[nH]1)C(C)C`, the EC50 is less than 4.1 pM.
With `COC(=O)N[C@H](C(=O)N1CCC[C@H]1c1ncc(-c2ccc3c(c2)Sc2ccc(-c4cnc([C@@H]5CCCN5C(=O)[C@@H](NC(=O)OC)C(C)C)[nH]4)cc2S3)[nH]1)C(C)C`, the EC50 came to 5.8 pM.
As for `COC(=O)N[C@H](C(=O)N1CCCC[C@H]1c1ncc(-c2ccc(C#Cc3ccc(-c4cnc([C@@H]5CCCN5C(=O)[C@@H](NC(=O)OC)C(C)C)[nH]4)cc3)cc2)[nH]1)C(C)C`, the figure is 22.4 pM.
The result for `COCC[C@H](NC(=O)OC)C(=O)N1CCS[C@H]1c1ncc(-c2ccc(-c3ccc4cc(-c5cnc([C@@H]6CC7(CC7)CN6C(=O)[C@@H](NC(=O)OC)C(C)C)[nH]5)ccc4c3)cc2)[nH]1` reads 40.2 pM; that for `COC(=O)N[C@H](C(=O)N1CCC[C@H]1c1ncc(-c2ccc(-c3ccc(-c4cnc([C@@H]5CN(C(=O)c6ccccc6)CN5C(=O)[C@@H](NC(=O)OC)C(C)C)[nH]4)cc3)cc2)[nH]1)C(C)C`, 13.6 pM.
For the compound `COC(=O)N[C@H](C(=O)N1CC2(CC2)C[C@H]1c1ncc(-c2ccc3c(c2)C(F)(F)c2cc(-c4ccc5nc([C@@H]6[C@H]7CC[C@H](C7)N6C(=O)[C@@H](NC(=O)OC)C(C)C)[nH]c5c4)ccc2-3)[nH]1)C(C)C`, the EC50 was 4.5 pM.
With `COC(=O)N[C@H](C(=O)N1CCC[C@H]1c1ncc(-c2ccc(-c3ccc4cc(-c5cnc([C@@H]6CCCN6C(=O)[C@@H](NC(=O)OC)C(C)C)[nH]5)ccc4c3)cc2)[nH]1)c1ccsc1`, the EC50 turned out to be 90.6 pM.
On to `COC(=O)N[C@H](C(=O)N1CCC[C@H]1c1ncc(-c2ccc3c(c2)COc2cc(-c4ccc5nc([C@@H]6[C@H]7CC[C@H](C7)N6C(=O)[C@@H](NC(=O)OC)C(C)C)[nH]c5c4)ccc2-3)[nH]1)C(C)C`, for which the EC50 turned out to be 7 pM.
Regarding `COC(=O)N[C@H](C(=O)N1CC2(CC2)C[C@H]1c1ncc(-c2ccc3cc(-c4ccc(-c5cnc([C@@H]6SCCN6C(=O)[C@@H](NC(=O)OC)C(C)C)[nH]5)cc4)ccc3c2)[nH]1)C(C)C`, the EC50 came to 19.2 pM.
As for `COC(=O)N[C@H](C(=O)N1CCC[C@H]1c1ncc(-c2ccc3cc(-c4ccc(-c5cnc([C@@H]6C[C@H](C#N)CN6C(=O)[C@@H](NC(=O)OC)C(C)C)[nH]5)cc4)ccc3c2)[nH]1)C(C)C`, the figure is 6.7 pM; as for `COC(=O)N[C@H](C(=O)N1CCC[C@H]1c1ncc(-c2cc3c(C)c4sc(-c5cnc([C@@H]6CCCN6C(=O)[C@@H](NC(=O)OC)C6CCOCC6)[nH]5)cc4c(C)c3s2)[nH]1)C1CCOCC1`, 106 pM; as for `COC(=O)N[C@H](C(=O)N1CCC[C@H]1c1ncc(-c2ccc(-c3cnc([C@@H]4CCCN4C(=O)[C@@H](NC(=O)OC)C(C)C)[nH]3)cc2)[nH]1)C(C)C`, 1220 pM.
For the compound `COC(=O)NC(C(=O)N1CCC[C@H]1c1ncc(-c2ccc3cc(-c4ccc(-c5cnc([C@@H]6C[C@H](OC(F)F)CN6C(=O)[C@@H](NC(=O)OC)C(C)C)[nH]5)cc4)ccc3c2)[nH]1)c1ccccc1` (stereo partly shown), the EC50 was determined as 17.1 pM.
Take `COC(=O)N[C@H](C(=O)N1CCC[C@H]1c1ncc(-c2ccc(-c3ccc(-c4cnc([C@@H]5CN(C(C)=O)CN5C(=O)[C@@H](NC(=O)OC)C(C)C)[nH]4)cc3)cc2)[nH]1)C(C)C`: the EC50 amounted to 85.2 pM.
With `COC(=O)NC(C(=O)N1CCC[C@H]1c1ncc(-c2ccc(-c3ccc4cc(-c5cnc([C@@H]6CCCN6C(=O)[C@@H](NC(=O)OC)C(C)C)[nH]5)ccc4c3)cc2)[nH]1)c1ccccc1C` (stereo partly shown), the EC50 amounted to 11.7 pM.
The result for `COC[C@H]1C[C@@H](c2ncc(-c3ccc(-c4ccc5cc(-c6cnc([C@@H]7CC8(CC8)CN7C(=O)[C@@H](NC(=O)OC)C(C)C)[nH]6)ccc5c4)cc3)[nH]2)N(C(=O)[C@@H](NC(=O)OC)C(C)C)C1` reads 7.3 pM; that for `COC(=O)N[C@H](C(=O)N[C@@H](CO)c1ncc(-c2ccc(-c3ccc(-c4cnc([C@@H]5CCCN5C(=O)[C@@H](NC(=O)OC)C(C)C)[nH]4)cc3)cc2)[nH]1)C(C)C`, 77.5 pM; that for `COC(=O)NC(C(=O)N1CCC[C@H]1c1ncc(-c2ccc(-c3ccc4cc(-c5cnc([C@@H]6CCCN6C(=O)C(NC(=O)OC)c6ccccc6)[nH]5)ccc4c3)cc2)[nH]1)c1ccccc1` (stereo partly shown), 22.8 pM.
As to `COC(=O)N[C@H](C(=O)N1CCC[C@H]1c1ncc(-c2ccc3cc(-c4ccc(-c5cnc([C@@H]6CCCN6C(=O)[C@H](NC(=O)OC)c6ccccc6)[nH]5)cc4)ccc3c2)[nH]1)C(C)C`, the EC50 came out at 8.1 pM.
The result for `COC(=O)N[C@H](C(=O)N1CCC[C@H]1c1ncc(-c2ccc3cc(-c4ccc(-c5cnc([C@@H]6C[C@H](CNC(C)=O)CN6C(=O)[C@@H](NC(=O)OC)C(C)C)[nH]5)cc4)ccc3c2)[nH]1)C(C)C` reads 138 pM; that for `COC(=O)NC(C(=O)N1CCS[C@H]1c1nc(-c2cc3c(OC)c4sc(-c5c[nH]c([C@@H]6SCCN6C(=O)C(NC(=O)OC)c6ccccc6)n5)cc4c(OC)c3s2)c[nH]1)c1ccccc1` (stereo partly shown), 4370 pM; that for `COC(=O)N[C@@H](CC#N)C(=O)N1[C@@H]2CC[C@@H](C2)[C@H]1c1ncc(-c2ccc3cc(-c4ccc(-c5cnc([C@@H]6CCCN6C(=O)[C@@H](NC(=O)OC)C(C)C)[nH]5)cc4)ccc3c2)[nH]1`, 13 pM.
